Patent US9695155B2, “Herbicidal substituted pyrimidinyloxy benzene compounds” (E. I. DU PONT DE NEMOURS AND COMPANY, priority 2013, dated 2017)

Key:
barnyardgrass [1] = assay: Test A preemergence; assay type: in vivo, Echinochloa crus-galli; conditions: for Barnyardgrass plant response rating (0 to 100 scale, 0 is no effect, 100 is complete control): 125 g ai/ha; for Barnyardgrass plant response rating: 500 g ai/ha, 0 to 100 scale where 0 is no effect and 100 is complete control
In short: (§1)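 Visual injury scored 0–100 (100 = complete control) against untreated controls about 10 days after treatment in a greenhouse. Test chemicals, formulated with surfactant in non-phytotoxic solvent, were sprayed on soil preemergence or on 2-10 cm, one- to two-leaf plants postemergence.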

large (Lg) crabgrass [2] = assay: Test A preemergence; assay type: in vivo, Digitaria sanguinalis; conditions: for Crabgrass, Large plant response rating (0 to 100 scale): 125 g ai/ha; for Crabgrass, Large plant response rating: 500 g ai/ha, 0 to 100 scale where 0 is no effect and 100 is complete control
In short: as §1

giant foxtail [3] = assay: Test A preemergence; assay type: in vivo, Setaria faberii; conditions: for Foxtail, Giant plant response rating (0 to 100 scale): 125 g ai/ha; for Foxtail, Giant plant response rating: 500 g ai/ha, 0 to 100 scale where 0 is no effect and 100 is complete control
In short: as §1

morningglory [4] = assay: Test A preemergence; assay type: in vivo, Ipomoea spp.; conditions: for Morningglory plant response rating (0 to 100 scale): 125 g ai/ha; for Morningglory plant response rating: 500 g ai/ha, 0 to 100 scale where 0 is no effect and 100 is complete control
In short: as §1

pigweed [5] = assay: Test A preemergence; assay type: in vivo, Amaranthus retroflexus; conditions: for Pigweed plant response rating (0 to 100 scale): 125 g ai/ha; for Pigweed plant response rating: 500 g ai/ha, 0 to 100 scale where 0 is no effect and 100 is complete control
In short: as §1

velvetleaf [6] = assay: Test A preemergence; assay type: in vivo, Abutilon theophrasti; conditions: for Velvetleaf plant response rating (0 to 100 scale): 125 g ai/ha; for Velvetleaf plant response rating: 500 g ai/ha, 0 to 100 scale where 0 is no effect and 100 is complete control
In short: as §1

wheat [7] = assay: Test A preemergence; assay type: in vivo, Triticum aestivum; conditions: for Wheat plant response rating (0 to 100 scale): 125 g ai/ha; for Wheat plant response rating: 500 g ai/ha, 0 to 100 scale where 0 is no effect and 100 is complete control
In short: as §1

corn [8] = assay: Test A preemergence; assay type: in vivo, Zea mays; conditions: for Corn plant response rating (0 to 100 scale): 125 g ai/ha; for Corn plant response rating: 500 g ai/ha, 0 to 100 scale where 0 is no effect and 100 is complete control
In short: as §1

barnyardgrass [9] = assay: Test A postemergence; assay type: in vivo, Echinochloa crus-galli
In short: as §1

large (Lg) crabgrass [10] = assay: Test A postemergence; assay type: in vivo, Digitaria sanguinalis
In short: as §1

giant foxtail [11] = assay: Test A postemergence; assay type: in vivo, Setaria faberii
In short: as §1

morningglory [12] = assay: Test A postemergence; assay type: in vivo, Ipomoea spp.
In short: as §1

pigweed [13] = assay: Test A postemergence; assay type: in vivo, Amaranthus retroflexus
In short: as §1

velvetleaf [14] = assay: Test A postemergence; assay type: in vivo, Abutilon theophrasti
In short: as §1

wheat [15] = assay: Test A postemergence; assay type: in vivo, Triticum aestivum
In short: as §1

corn [16] = assay: Test A postemergence; assay type: in vivo, Zea mays
In short: as §1

rice = assay: Test B flooded paddy test; assay type: in vivo, Oryza sativa; conditions: Flood, 250 g ai/ha; 0 to 100 scale where 0 is no effect and 100 is complete control
In short: (§2)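 Flooded to 3 cm at the 2-leaf stage, pots received compound through the paddy water and were kept at that depth under greenhouse conditions. After 13–15 days, effect was rated by eye relative to controls, 0 = none and 100 = complete control.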

sedge, umbrella = assay: Test B flooded paddy test; assay type: in vivo, Cyperus difformis; conditions: Flood, 250 g ai/ha; 0 to 100 scale where 0 is no effect and 100 is complete control
In short: as §2

Heteranthera limosa = assay: Test B flooded paddy test; assay type: in vivo; conditions: Flood, 250 g ai/ha; 0 to 100 scale where 0 is no effect and 100 is complete control
In short: as §2

barnyardgrass [17] = assay: Test B flooded paddy test; assay type: in vivo, Echinochloa crus-galli; conditions: Flood, 250 g ai/ha; 0 to 100 scale where 0 is no effect and 100 is complete control
In short: as §2

[18] = 125 g ai/ha, 0 to 100 scale where 0 is no effect and 100 is complete control
[19] = 500 g ai/ha, 0 to 100 scale where 0 is no effect and 100 is complete control
[20] = 125 g ai/ha, 0 to 100 scale, 0 no effect, 100 complete control

Row | SMILES | Barnyardgrass plant response rating (0 to 100 scale, 0 is no effect, 100 is complete control) (barnyardgrass [1]) | Barnyardgrass plant response rating (barnyardgrass [1]) | Crabgrass, Large plant response rating (0 to 100 scale) (large (Lg) crabgrass [2]) | Crabgrass, Large plant response rating (large (Lg) crabgrass [2]) | Foxtail, Giant plant response rating (0 to 100 scale) (giant foxtail [3]) | Foxtail, Giant plant response rating (giant foxtail [3]) | Morningglory plant response rating (0 to 100 scale) (morningglory [4]) | Morningglory plant response rating (morningglory [4]) | Pigweed plant response rating (0 to 100 scale) (pigweed [5]) | Pigweed plant response rating (pigweed [5]) | Velvetleaf plant response rating (0 to 100 scale) (velvetleaf [6]) | Velvetleaf plant response rating (velvetleaf [6]) | Wheat plant response rating (0 to 100 scale) (wheat [7]) | Wheat plant response rating (wheat [7]) | Corn plant response rating (0 to 100 scale) (corn [8]) | Corn plant response rating (corn [8]) | Plant response rating, Barnyardgrass (barnyardgrass [9]; [19]) | Plant response rating, Crabgrass, Large (large (Lg) crabgrass [10]; [19]) | Plant response rating, Foxtail, Giant (giant foxtail [11]; [19]) | Plant response rating, Morningglory (morningglory [12]; [19]) | further results
1 | COC(=O)c1cccc(Oc2ncc(Cl)cn2)c1-n1cc(Br)cn1 [Compound 211] | 0 | 60 | 80 | 100 | 100 | 100 | 20 | 70 | 90 | 100 | 60 | 90 | 0 | 0 | 0 | 0 | 50 | 50 | 60 | 100 | Barnyardgrass plant response rating (barnyardgrass [9]; [18]): 10; Crabgrass, Large plant response rating (large (Lg) crabgrass [10]; [18]): 10; Foxtail, Giant plant response rating (giant foxtail [11]; [18]): 30; Morningglory plant response rating (morningglory [12]; [18]): 90; Pigweed plant response rating (pigweed [13]; [18]): 90; Plant response rating, Pigweed (pigweed [13]; [19]): 100; Velvetleaf plant response rating (velvetleaf [14]; [18]): 50; Plant response rating, Velvetleaf (velvetleaf [14]; [19]): 90; Wheat plant response rating (wheat [15]; [18]): 0; Plant response rating, Wheat (wheat [15]; [19]): 0; Corn plant response rating (corn [16]; [18]): 0; Plant response rating, Corn (corn [16]; [19]): 0; Plant response rating, Rice (rice): 0; Plant response rating, Sedge, Umbrella (sedge, umbrella): 0; Plant response rating, Ducksalad (Heteranthera limosa): 0; Plant response rating, Barnyardgrass (barnyardgrass [17]): 0
2 | Clc1cnc(Oc2ccccc2-n2cc(-c3ccccn3)cn2)nc1 [Compound 190] | 0 | 10 | 20 | 90 | 10 | 80 | 0 | 20 | 100 | 100 | 50 | 60 | 0 | 0 | 0 | 0 | 10 | 50 | 40 | 90 | Barnyardgrass plant response rating (barnyardgrass [9]; [18]): 0; Crabgrass, Large plant response rating (large (Lg) crabgrass [10]; [18]): 10; Foxtail, Giant plant response rating (giant foxtail [11]; [18]): 0; Morningglory plant response rating (morningglory [12]; [18]): 30; Pigweed plant response rating (pigweed [13]; [18]): 100; Plant response rating, Pigweed (pigweed [13]; [19]): 100; Velvetleaf plant response rating (velvetleaf [14]; [18]): 60; Plant response rating, Velvetleaf (velvetleaf [14]; [19]): 80; Wheat plant response rating (wheat [15]; [18]): 0; Plant response rating, Wheat (wheat [15]; [19]): 0; Corn plant response rating (corn [16]; [18]): 0; Plant response rating, Corn (corn [16]; [19]): 20; Plant response rating, Rice (rice): 0; Plant response rating, Sedge, Umbrella (sedge, umbrella): 0; Plant response rating, Ducksalad (Heteranthera limosa): 0; Plant response rating, Barnyardgrass (barnyardgrass [17]): 0
3 | N#Cc1cnc(Oc2ccccc2-n2cccn2)nc1 [Compound 226] | 0 | 0 | 0 | 0 | 0 | 0 | 0 | 0 | 0 | 0 | 0 | 0 | 0 | 0 | 0 | 0 | 0 | 0 | 0 | 0 | Barnyardgrass plant response rating (barnyardgrass [9]; [18]): 0; Crabgrass, Large plant response rating (large (Lg) crabgrass [10]; [18]): 0; Foxtail, Giant plant response rating (giant foxtail [11]; [18]): 0; Morningglory plant response rating (morningglory [12]; [18]): 0; Pigweed plant response rating (pigweed [13]; [18]): 0; Plant response rating, Pigweed (pigweed [13]; [19]): 10; Velvetleaf plant response rating (velvetleaf [14]; [18]): 0; Plant response rating, Velvetleaf (velvetleaf [14]; [19]): 10; Wheat plant response rating (wheat [15]; [18]): 0; Plant response rating, Wheat (wheat [15]; [19]): 0; Corn plant response rating (corn [16]; [18]): 0; Plant response rating, Corn (corn [16]; [19]): 0; Plant response rating, Rice (rice): 0; Plant response rating, Sedge, Umbrella (sedge, umbrella): 0; Plant response rating, Ducksalad (Heteranthera limosa): 0; Plant response rating, Barnyardgrass (barnyardgrass [17]): 0
4 | NN=Cc1cccc(Oc2ncc(Cl)cn2)c1-n1cc(Br)cn1 [Compound 288] | 0 | 10 | 0 | 10 | 0 | 0 | 0 | 0 | 20 | 90 | 0 | 10 | 0 | 0 | 0 | 0 | 10 | 20 | 20 | 40 | Plant response rating, Barnyardgrass (barnyardgrass [9]; [20]): 0; Plant response rating, Crabgrass, Large (large (Lg) crabgrass [10]; [20]): 10; Plant response rating, Foxtail, Giant (giant foxtail [11]; [20]): 10; Plant response rating, Morningglory (morningglory [12]; [20]): 20; Plant response rating, Pigweed (pigweed [13]; [20]): 90; Plant response rating, Pigweed (pigweed [13]; [19]): 100; Plant response rating, Velvetleaf (velvetleaf [14]; [20]): 20; Plant response rating, Velvetleaf (velvetleaf [14]; [19]): 30; Plant response rating, Wheat (wheat [15]; [20]): 0; Plant response rating, Wheat (wheat [15]; [19]): 0; Plant response rating, Corn (corn [16]; [20]): 0; Plant response rating, Corn (corn [16]; [19]): 10; Plant response rating, Rice (rice): 0; Plant response rating, Sedge, Umbrella (sedge, umbrella): 0; Plant response rating, Ducksalad (Heteranthera limosa): 0; Plant response rating, Barnyardgrass (barnyardgrass [17]): 0
